Reference: patent US20080058373A1, “Compositions and Methods for Treating or Preventing Glaucoma or Progression Thereof” (priority 2006, published 2008)
Where “and” joins values, the source holds several entries; their conditions need not be identical. Identical values can stand only once. Entries after “also recorded” stand apart in the source; their conditions may differ.

Legend:
Type in all cases: in vivo
[1] = system: New Zealand White rabbits; assay: Mortality/morbidity in the rabbit IOP study
Method: (§1) On Days 1-31, animals received daily topical doses of the appropriate test article into the right eye. Animals were dosed four times per day, with doses administered 2 hours apart. Doses were administered using a calibrated 50-μL pipette. The eyelids were held close for 10 seconds immediately following dosing. The time of each dose administration was recorded.
Animals determined to be moribund were euthanized with an intravenous injection of commercial euthanasia solution.

[2] = system: New Zealand White rabbits; assay: Ophthalmic observations (slit lamp, McDonald Shadduck system) in the rabbit IOP study; parameters: key to Conjunctival congestion Score: A flushed, reddish color predominantly confined to the palpebral conjunctiva with some perilimbal injection but primarily confined to the lower and upper parts of the eye from the 4:00 to 7:00 and 11:00 to 1:00 positions; key to Ophthalmic Observation (Slit-Lamp): AN: Appeared normal; details: 0.1% 4 × daily, treated right eye
Method: Prior to placement on study, each animal underwent a pre-treatment ophthalmic examination (slit lamp and indirect ophthalmoscopy). Observations were scored according to the McDonald Shadduck system and recorded using a standardized data collection sheet.
Ophthalmic examinations (slit lamp) were performed prior to the first dosing on Days 5, 12, 22, 26, and 33. Ocular findings were scored according to the McDonald Shadduck system and recorded using a standardized data collection sheet.

[3] = system: New Zealand White rabbits; assay: Intraocular pressure (IOP) in rabbits, topical dosing four times daily; details: 0.1% (Group A)
Method: Seventy-five rabbits underwent two weeks of IOP training to condition them for IOP measurement. IOP was determined for both eyes of each animal using a Medtronic Solan, Model 30 classic pneumatonometer. Proparacaine hydrochloride 0.5% (1 drop) was delivered to each eye prior to IOP measurement. A two-point diurnal curve was established: IOP was recorded on Monday, Wednesday, and Friday of each week, at 8 a.m. and 12 p.m., with a ±1 hour range for each of these times. The time of the measurements was recorded.
as §1
Intraocular pressure (“IOP”) was determined for both eyes of each animal on Days 3, 5, 10, 12, 16, 18, 22, 24, 26, 30, and 32. IOP was evaluated with a Medtronic Solan, Model 30 classic pneumatonometer. Proparacaine hydrochloride 0.5% (1 drop) was delivered to each eye prior to IOP measurement. IOP was measured on Monday, Wednesday, and Friday of each week. A two-point diurnal curve was established: IOP was recorded at 8 a.m. and 12 p.m. on Day 3, and at 8 a.m. and 2 p.m. on later days, with a ±1 hour range for each of these times. The time of the measurements was recorded.
Descriptive statistics were prepared for IOP data of each treatment group (left and right eyes separately) at each measurement interval. The statistics included the number of observations (“N”), mean, standard deviation (“STD”), and standard error (“SEM”). Statistical analyses were conducted on IOP results using Statistical Analysis Systems (SAS Institute, Inc., Cary, N.C., V8.0). Parameters were evaluated using analysis of variance/GLM Procedure followed by Tukey's Standardized Range Test (Tukey, 1985) for post hoc comparisons of group means. The level of significance was set at a probability of p<0.05 for all statistical procedures. Group IOP means were compared at each interval, with left and right eyes compared separately.

[4] = 0.1% (0.05 mg/dose) 4 × daily, Group A, individual rabbits

**Q.** What does the source list for `C[C@@H]1C[C@H]2[C@@H]3CCC4=CC(=O)C=C[C@]4(C)[C@@]3(F)[C@@H](O)C[C@]2(C)[C@@]1(O)C(=O)CO` [dexamethasone, reference compound]?
**A.** Day of Death (day euthanized or found dead) [1, 4]: 25 (2×) and 27 (2×) and 23 and 13; Recorded Notes (mortality) [1, 4]: Euthanized due to severe hemorrhagic diarrhea. Noted to be; also recorded: Euthanized. Very sick/poor health; left (untreated) eye; also recorded: Euthanized due to severe profuse hemorrhagic diarrhea; also recorded: Found dead. No rigor mortis present; Mortality (animals found dead or euthanized prior to study completion/number of animals in group) ([1]; 0.1%, 0.05 mg/dose, topical right eye 4 × daily, Day 33): 6/10^(3); Conjunctival congestion Score ([2]; Day 5): 1; Ophthalmic Observation (Slit-Lamp) ([2]; Day 5, 12): AN; Ophthalmic Observation (Slit-Lamp) ([2]; Day 5, 12, 22): AN; Ophthalmic Observation (Slit-Lamp) ([2]; Day 5, 12, 22, 26): AN; Ophthalmic Observation (Slit-Lamp) ([2]; Day 5, 12, 22, 26, 33): AN; Ophthalmic Observation (Slit-Lamp) ([2]; Day 5, 12, 26, 33): AN; Ophthalmic Observation (Slit-Lamp) ([2]; Day 12, 22, 26): AN; Conjunctival congestion Score ([2]; Day 22): 1; Intraocular Pressure in Untreated Left Eyes (A.M. Readings), MEAN ([3]; Day 3): 24.3 mmHg; Intraocular Pressure in Untreated Left Eyes (A.M. Readings), MEAN ([3]; Day 5): 24.3 mmHg; Intraocular Pressure in Untreated Left Eyes (A.M. Readings), MEAN ([3]; Day 10): 26.9 mmHg; Intraocular Pressure in Untreated Left Eyes (A.M. Readings), MEAN ([3]; Day 12): 26.2 mmHg; Intraocular Pressure in Untreated Left Eyes (A.M. Readings), MEAN ([3]; Day 16): 25.0 mmHg; Intraocular Pressure in Untreated Left Eyes (A.M. Readings), MEAN ([3]; Day 18): 24.2 mmHg; Intraocular Pressure in Untreated Left Eyes (A.M. Readings), MEAN ([3]; Day 22): 25.0 mmHg; Intraocular Pressure in Untreated Left Eyes (A.M. Readings), MEAN ([3]; Day 24): 23.6 mmHg; Intraocular Pressure in Untreated Left Eyes (A.M. Readings), MEAN ([3]; Day 26): 23.7 mmHg; Intraocular Pressure in Untreated Left Eyes (A.M. Readings), MEAN ([3]; Day 30): 24.0 mmHg; Intraocular Pressure in Untreated Left Eyes (A.M. Readings), MEAN ([3]; Day 32): 25.5 mmHg; Intraocular Pressure in Untreated Left Eyes (A.M. Readings), MEAN ([3]; Pre-Study): 24.4 mmHg
